{
  "source": "patent US5484804A",
  "about": "“Perhydroisoindole derivatives as antagonists of substance P” (Rhone-Poulenc Rorer S.A., priority 1992, dated 1996)",
  "type_in_all_cases": "in vivo",
  "key": {"[1]": {"tested_on": "increase in capillary permeability caused by septide (agonist of substance P)", "assay": "inhibition of the increase in capillary permeability caused by septide", "settings": "Cavia porcellus, guinea-pig", "description": "The study of some isoindole derivatives of the general formula (I) by the technique of A. Saria et al., Arch."}, "[2]": {"tested_on": "hypotension induced by substance P", "assay": "antagonism of hypotension induced by substance P", "settings": "Cavia porcellus, iv; guinea-pig, hypotension induced by i.v. injection of 250 ng/kg of substance P; read-out: ED50, dose which reduces by 50% the hypotension", "protocol": "Injection of substance P in animals causes hypotension. The products studied by the technique of C. A. Maggi et al., J. Auton. […] The ED50, the dose which reduces by 50% the hypotension induced by an i.v. injection of 250 ng/kg of substance P, is determined."}, "[3]": {"tested_on": "bronchospasm induced by [Pro^9 ] substance P", "assay": "inhibition of bronchospasm induced by [Pro9] substance P", "settings": "Cavia porcellus, iv; guinea-pig, bronchospasm induced by 3 μg/kg i.v. of [Pro9] substance P; read-out: ED50, dose which reduces by 50% the bronchospasm", "description": "Injection of substance P causes a bronchospasm in the animal. The bronchoconstriction induced in vivo in the guinea-pig by injection of substance P or a selective agonist of substance P:. [Pro^9 ] substance P, is studied by the technique of H. Konzett and R. Rosseler, Archiv. Exp. Path. Pharmak., 195, 71-74 (1940). This bronchoconstriction is inhibited by injection of a product according to the invention, which is evidence of an antiasthmatic activity. The ED50, the dose which reduces by 50% the bronchospasm induced by 3 μg/kg i.v. of [Pro^9 ] substance P, is determined. In this technique, the ED50 of the product of Example 1 is 0.7 mg/kg i.v."}, "formalin pain": {"tested_on": "formalin pain", "assay": "formalin pain test", "settings": "Cavia porcellus, po; guinea-pig, administered perorally 1 hour before the test"}},
  "data": [
    {"compound": "COc1ccccc1[C@H](C)C(=O)N1C[C@@H]2[C@H](C1)C(c1ccccc1)(c1ccccc1)CC[C@@]2(O)c1ccccc1OC", "note": "[Example 1, (3aS,4S,7aS)-7,7-diphenyl-4-(2-methoxyphenyl)-2-[(S)-2-(2methoxyphenyl)propionyl]perhydroisoindol-4-ol]", "values": [
      {"measurement": "ED50", "setting": "[1]; iv", "result": 0.04, "unit": "mg/kg"},
      {"measurement": "ED50", "setting": "[1]; po", "result": 3.5, "unit": "mg/kg"},
      {"measurement": "ED50", "setting": "[2]", "result": 0.15, "unit": "mg/kg"},
      {"measurement": "ED50", "setting": "[3]", "result": 0.7, "unit": "mg/kg"},
      {"measurement": "ED50", "setting": "formalin pain", "result": 11, "unit": "mg/kg"}
    ]}
  ]
}
